Test results: ChEMBL document CHEMBL1909046, “DrugMatrix in vitro pharmacology data”

Tests used:
[1] = target: T1, Polyunsaturated fatty acid lipoxygenase ALOX15 (Oryctolagus cuniculus, UniProt P12530); assay: biochemical; assay type: tissue-based, Reticulocytes; details: reticulocytes;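 also: inhibition of 15-lipoxygenase enzyme activity measured with linoleic acid as the substrate; in other assays of this panel Not Active means under 50% inhibition at 10 µM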
T1 sequence (P12530 whole entry): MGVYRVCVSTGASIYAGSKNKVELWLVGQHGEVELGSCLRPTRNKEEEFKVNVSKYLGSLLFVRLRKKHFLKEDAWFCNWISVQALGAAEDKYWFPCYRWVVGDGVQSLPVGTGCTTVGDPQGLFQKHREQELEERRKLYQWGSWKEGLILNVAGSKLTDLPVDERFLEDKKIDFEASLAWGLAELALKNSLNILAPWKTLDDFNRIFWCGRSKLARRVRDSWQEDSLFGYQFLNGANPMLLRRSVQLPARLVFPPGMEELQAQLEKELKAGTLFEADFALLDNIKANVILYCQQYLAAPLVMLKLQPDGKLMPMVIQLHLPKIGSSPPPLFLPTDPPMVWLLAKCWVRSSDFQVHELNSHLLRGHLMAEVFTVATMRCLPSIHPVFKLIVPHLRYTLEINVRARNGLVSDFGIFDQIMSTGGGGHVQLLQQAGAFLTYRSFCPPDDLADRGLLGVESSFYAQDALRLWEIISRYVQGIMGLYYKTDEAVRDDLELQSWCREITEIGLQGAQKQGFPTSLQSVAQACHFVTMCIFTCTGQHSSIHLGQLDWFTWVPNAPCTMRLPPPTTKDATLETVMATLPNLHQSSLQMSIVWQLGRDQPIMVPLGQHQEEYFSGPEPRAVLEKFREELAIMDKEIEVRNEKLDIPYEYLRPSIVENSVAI

[2] = DRUGMATRIX: Purinergic P2X radioligand binding (ligand: [3H] alpha, beta-Methylene-ATP); assay type: cell membranes, Oryctolagus cuniculus, New Zealand albino, Urinary bladder, Membrane; details: Not Active = under 50% inhibition at 10 µM
[3] = DRUGMATRIX: Tumor Necrosis Factor (TNF), Non-Selective radioligand binding (ligand: [125I] TNF-alpha); assay type: cell membranes, Membrane; details: u-937; Not Active = under 50% inhibition at 10 µM
B2 bradykinin receptor = target: T2, B2 bradykinin receptor (Homo sapiens, UniProt P30411); assay type: cell membranes, Membrane; details: chem-1; also: in other assays of this panel Not Active means under 50% inhibition at 10 µM
T2 sequence (P30411 whole entry): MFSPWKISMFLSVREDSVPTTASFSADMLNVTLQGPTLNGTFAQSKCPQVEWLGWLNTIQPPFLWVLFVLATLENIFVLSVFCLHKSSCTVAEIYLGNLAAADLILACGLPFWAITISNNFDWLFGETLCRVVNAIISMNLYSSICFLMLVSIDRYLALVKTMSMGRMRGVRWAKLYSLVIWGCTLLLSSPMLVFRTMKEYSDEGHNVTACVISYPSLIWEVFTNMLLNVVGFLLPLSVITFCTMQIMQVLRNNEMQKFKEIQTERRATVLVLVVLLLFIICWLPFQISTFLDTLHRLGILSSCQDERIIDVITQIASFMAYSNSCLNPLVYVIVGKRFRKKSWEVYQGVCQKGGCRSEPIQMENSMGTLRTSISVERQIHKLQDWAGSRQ

Cytochrome P450 1A2 = target: T3, Cytochrome P450 1A2 (Homo sapiens, UniProt P05177); details: bti-tn-5b1-4; also: in other assays of this panel Not Active means under 50% inhibition at 10 µM
T3 sequence (P05177 whole entry): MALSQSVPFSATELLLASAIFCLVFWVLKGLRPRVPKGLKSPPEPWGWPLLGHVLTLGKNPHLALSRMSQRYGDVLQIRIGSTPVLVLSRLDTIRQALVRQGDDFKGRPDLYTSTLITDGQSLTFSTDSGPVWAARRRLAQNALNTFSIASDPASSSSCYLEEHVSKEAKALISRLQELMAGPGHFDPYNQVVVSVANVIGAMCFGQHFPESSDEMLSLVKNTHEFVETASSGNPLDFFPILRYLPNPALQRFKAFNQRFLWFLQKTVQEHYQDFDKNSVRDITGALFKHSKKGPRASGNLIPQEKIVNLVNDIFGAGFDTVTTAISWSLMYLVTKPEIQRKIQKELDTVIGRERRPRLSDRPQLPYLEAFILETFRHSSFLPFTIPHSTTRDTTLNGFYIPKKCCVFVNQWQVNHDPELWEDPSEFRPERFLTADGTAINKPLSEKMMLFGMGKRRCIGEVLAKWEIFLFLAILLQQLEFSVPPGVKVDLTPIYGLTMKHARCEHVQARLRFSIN

[4] = target: Prostaglandin G/H synthase 1 (Homo sapiens, UniProt P23219); assay: biochemical; assay type: tissue-based, Platelet; details: platelet;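 also: inhibition of COX-1 enzyme activity, with arachidonic acid supplied as substrate; in other assays of this panel Not Active means under 50% inhibition at 10 µM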
[5] = target: T4, Nitric oxide synthase, inducible (Mus musculus, UniProt P29477); parameters: species or system Escherichia coli
T4 sequence (P29477 whole entry): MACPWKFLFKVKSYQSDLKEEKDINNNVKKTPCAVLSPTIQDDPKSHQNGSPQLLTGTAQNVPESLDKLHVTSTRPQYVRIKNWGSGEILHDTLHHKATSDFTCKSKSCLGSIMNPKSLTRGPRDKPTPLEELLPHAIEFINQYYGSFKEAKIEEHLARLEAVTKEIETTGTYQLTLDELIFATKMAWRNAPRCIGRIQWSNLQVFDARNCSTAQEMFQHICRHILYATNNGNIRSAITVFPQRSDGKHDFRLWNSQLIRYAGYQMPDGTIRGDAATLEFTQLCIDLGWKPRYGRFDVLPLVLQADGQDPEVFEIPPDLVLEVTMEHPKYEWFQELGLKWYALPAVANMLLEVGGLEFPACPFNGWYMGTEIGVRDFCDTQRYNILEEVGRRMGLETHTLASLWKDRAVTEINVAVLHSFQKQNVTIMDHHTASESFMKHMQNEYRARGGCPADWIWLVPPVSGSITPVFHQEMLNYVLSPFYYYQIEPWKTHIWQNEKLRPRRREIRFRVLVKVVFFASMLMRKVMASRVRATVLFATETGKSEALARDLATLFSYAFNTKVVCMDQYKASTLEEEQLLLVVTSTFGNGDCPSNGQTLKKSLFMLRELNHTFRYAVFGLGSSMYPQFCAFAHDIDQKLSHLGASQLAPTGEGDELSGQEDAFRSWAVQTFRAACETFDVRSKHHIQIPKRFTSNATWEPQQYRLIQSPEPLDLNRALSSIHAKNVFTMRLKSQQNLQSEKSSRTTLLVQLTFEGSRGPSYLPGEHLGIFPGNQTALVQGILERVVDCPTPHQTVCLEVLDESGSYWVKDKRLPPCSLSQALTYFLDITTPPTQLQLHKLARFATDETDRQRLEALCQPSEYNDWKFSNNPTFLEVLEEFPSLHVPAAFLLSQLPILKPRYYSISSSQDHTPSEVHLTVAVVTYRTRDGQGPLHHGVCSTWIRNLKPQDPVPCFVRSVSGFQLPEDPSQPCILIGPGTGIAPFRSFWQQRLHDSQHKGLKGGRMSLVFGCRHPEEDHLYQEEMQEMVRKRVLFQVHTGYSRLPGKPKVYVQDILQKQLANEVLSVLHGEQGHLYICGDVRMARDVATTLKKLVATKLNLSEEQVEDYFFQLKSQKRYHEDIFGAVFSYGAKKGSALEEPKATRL

Prostaglandin G/H synthase 1, sequence (P23219 whole entry): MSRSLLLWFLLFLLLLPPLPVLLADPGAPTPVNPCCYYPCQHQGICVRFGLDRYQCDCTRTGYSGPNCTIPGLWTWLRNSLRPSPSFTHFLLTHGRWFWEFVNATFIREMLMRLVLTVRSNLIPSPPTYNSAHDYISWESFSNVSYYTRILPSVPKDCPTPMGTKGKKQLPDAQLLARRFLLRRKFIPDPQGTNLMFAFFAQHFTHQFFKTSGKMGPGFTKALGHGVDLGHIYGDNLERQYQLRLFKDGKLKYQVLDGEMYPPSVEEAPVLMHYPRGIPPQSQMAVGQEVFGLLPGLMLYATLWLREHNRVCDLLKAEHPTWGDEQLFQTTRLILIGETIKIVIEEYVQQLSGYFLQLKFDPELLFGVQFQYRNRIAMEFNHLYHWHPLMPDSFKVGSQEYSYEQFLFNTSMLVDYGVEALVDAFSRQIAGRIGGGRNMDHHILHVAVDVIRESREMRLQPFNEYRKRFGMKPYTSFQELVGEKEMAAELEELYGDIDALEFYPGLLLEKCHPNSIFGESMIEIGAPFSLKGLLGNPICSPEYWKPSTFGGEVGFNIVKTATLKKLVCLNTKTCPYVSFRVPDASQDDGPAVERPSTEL

CS(=O)(=O)OCCCCOS(C)(=O)=O [BUSULFAN]
Not Active: IC50 [1] | IC50 [2] | Ki [2] | IC50 [3] | Ki [3] | IC50 (B2 bradykinin receptor) | IC50 (Cytochrome P450 1A2) | Ki (Cytochrome P450 1A2) | IC50 [4] | IC50 [5]

CC[C@H]1OC(=O)[C@H](C)[C@@H](O[C@H]2C[C@@](C)(OC)[C@@H](O)[C@H](C)O2)[C@H](C)[C@@H](O[C@@H]2O[C@H](C)C[C@H](N(C)C)[C@H]2O)[C@](C)(O)C[C@@H](C)CN(C)[C@H](C)[C@@H](O)[C@]1(C)O [AZITHROMYCIN]
Not Active: IC50 [1] | IC50 [2] | Ki [2] | IC50 [3] | Ki [3] | IC50 (B2 bradykinin receptor) | IC50 (Cytochrome P450 1A2) | Ki (Cytochrome P450 1A2) | IC50 [4] | IC50 [5]

CC(=O)OCC(CCn1cnc2cnc(N)nc21)COC(C)=O [FAMCICLOVIR]
Not Active: IC50 [1] | IC50 [2] | Ki [2] | IC50 [3] | Ki [3] | IC50 (B2 bradykinin receptor) | IC50 (Cytochrome P450 1A2) | Ki (Cytochrome P450 1A2) | IC50 [4] | IC50 [5]

O=C(c1ccccc1Cl)N1CCC(Cc2ccccc2)CC1
Not Active: IC50 [1] | IC50 [2] | Ki [2] | IC50 [3] | Ki [3] | IC50 (B2 bradykinin receptor) | IC50 (Cytochrome P450 1A2) | Ki (Cytochrome P450 1A2) | IC50 [4] | IC50 [5]

Cc1c(F)c(N2CCNC(C)C2)cc2c1c(=O)c(C(=O)O)cn2C1CC1 (stereo not drawn) [GREPAFLOXACIN]
Not Active: IC50 [1] | IC50 [2] | Ki [2] | IC50 [3] | Ki [3] | IC50 (B2 bradykinin receptor) | IC50 (Cytochrome P450 1A2) | Ki (Cytochrome P450 1A2) | IC50 [4] | IC50 [5]

COC(=O)c1ccccc1O [METHYL SALICYLATE]
Not Active: IC50 [1] | IC50 [2] | Ki [2] | IC50 [3] | Ki [3] | IC50 (B2 bradykinin receptor) | IC50 (Cytochrome P450 1A2) | Ki (Cytochrome P450 1A2) | IC50 [4] | IC50 [5]

O=C(O)c1cccnc1 [NIACIN]
Not Active: IC50 [1] | IC50 [2] | Ki [2] | IC50 [3] | Ki [3] | IC50 (B2 bradykinin receptor) | IC50 (Cytochrome P450 1A2) | Ki (Cytochrome P450 1A2) | IC50 [4] | IC50 [5]

CC[C@H](C)C(=O)O[C@H]1C[C@@H](C)C=C2C=C[C@H](C)[C@H](CC[C@@H]3C[C@@H](O)CC(=O)O3)[C@H]21 [LOVASTATIN]
Not Active: IC50 [1] | IC50 [2] | Ki [2] | IC50 [3] | Ki [3] | IC50 (B2 bradykinin receptor) | IC50 (Cytochrome P450 1A2) | Ki (Cytochrome P450 1A2) | IC50 [4] | IC50 [5]

COBALT(II) ACETYLACETONATE
Not Active: IC50 [1] | Ki [1] | IC50 [2] | Ki [2] | IC50 [3] | Ki [3] | IC50 (B2 bradykinin receptor) | Ki (B2 bradykinin receptor) | IC50 (Cytochrome P450 1A2) | Ki (Cytochrome P450 1A2) | IC50 [4] | Ki [4] | IC50 [5] | Ki [5]

CN(C(=O)CCCOc1ccc2[nH]c(=O)ccc2c1)C1CCCCC1 [CILOSTAMIDE]
Not Active: IC50 [1] | IC50 [2] | Ki [2] | IC50 [3] | Ki [3] | IC50 (B2 bradykinin receptor) | IC50 (Cytochrome P450 1A2) | Ki (Cytochrome P450 1A2) | IC50 [4] | IC50 [5]

INSULIN HUMAN
Not Active: IC50 [1] | Ki [1] | IC50 [2] | Ki [2] | IC50 [3] | Ki [3] | IC50 (B2 bradykinin receptor) | Ki (B2 bradykinin receptor) | IC50 (Cytochrome P450 1A2) | Ki (Cytochrome P450 1A2) | IC50 [4] | Ki [4] | IC50 [5] | Ki [5]

CCOC(=O)[C@H](CCc1ccccc1)N[C@@H](C)C(=O)N1CCC[C@H]1C(=O)O
Not Active: IC50 [1] | IC50 [2] | Ki [2] | IC50 [3] | Ki [3] | IC50 (B2 bradykinin receptor) | IC50 (Cytochrome P450 1A2) | Ki (Cytochrome P450 1A2) | IC50 [4] | IC50 [5]

O=C(O)c1cc(=O)c2c(OCC(O)COc3cccc4oc(C(=O)O)cc(=O)c34)cccc2o1 [CROMOLYN]
Not Active: IC50 [1] | IC50 [2] | Ki [2] | IC50 [3] | Ki [3] | IC50 (B2 bradykinin receptor) | IC50 (Cytochrome P450 1A2) | Ki (Cytochrome P450 1A2) | IC50 [4] | IC50 [5]

Cc1cccc(Nc2cc(Cl)nc(SCC(=O)O)n2)c1C [PIRINIXIC ACID]
Not Active: IC50 [1] | IC50 [2] | Ki [2] | IC50 [3] | Ki [3] | IC50 (B2 bradykinin receptor) | IC50 (Cytochrome P450 1A2) | Ki (Cytochrome P450 1A2) | IC50 [4] | IC50 [5]

CC[C@H]1OC(=O)[C@H](C)[C@@H](O[C@H]2C[C@@](C)(OC)[C@@H](O)[C@H](C)O2)[C@H](C)[C@@H](O[C@@H]2O[C@H](C)C[C@H](N(C)C)[C@H]2O)[C@](C)(OC)C[C@@H](C)C(=O)[C@H](C)[C@@H](O)[C@]1(C)O [CLARITHROMYCIN]
Not Active: IC50 [1] | IC50 [2] | Ki [2] | IC50 [3] | Ki [3] | IC50 (B2 bradykinin receptor) | IC50 (Cytochrome P450 1A2) | Ki (Cytochrome P450 1A2) | IC50 [4] | IC50 [5]
